This is an account of results in publication PMC4821601, “The Interactions of P-Glycoprotein with Antimalarial Drugs, Including Substrate Affinity, Inhibition and Regulation” (PLoS ONE, 2016).

The structures appear in SMILES notation. Like-named read-outs stand apart in the source and are kept apart here. Marks after values point to notes of the source that are not given here.

Data set [1] is described as follows: Bidirectional transport (Papp, efflux ratio) of antimalarials through Caco-2 cell monolayers. In kind it is in vitro ADME, human. Conditions: human; for Papp at 120 min: Caco-2, Caco-2 monolayers. How it is done: (§1) The initial experiments were conducted in mid-40s passage cells and repeated in early 80s passage Caco-2 cells. […] In order to maintain equivalent transport medium (HBSS/HBSS with inhibitor) level both outside and inside the chambers, 300 μL was used as medium in the apical chambers and 600 μL in the basolateral chambers. […] Drugs were co-incubated with MRCP, BCRP and ATP hydrolysis blockers to determine the involvement of other efflux mechanisms. Prior to the experiment, the transport medium, HBSS or HBSS with P-gp inhibitors were pre-incubated with the cells for 30 minutes. Following incubation, inserts were placed in new well plates and donor chamber is replaced with drug or drug with inhibitor and the receiver chamber with blank HBSS or HBSS with inhibitor. Transport medium was collected from the receiver chamber after stirring at time intervals of 30, 60, 90 and 120 minutes and was replaced with the same volume of fresh HBSS, or HBSS with inhibitor, when P-gp inhibitors were used in the study. At the end of the experiment 100 μL of medium was removed from the donor chamber in addition to medium collected from the receiver chamber during the study. The cells were then washed thoroughly in cold (4°C) PBS and cell membranes attached to the inserts were sonicated for 10 minutes in a sonicating water bath and centrifuged at 10,000 g for 10 minutes. Supernatant was frozen at -80°C until assayed. […] CL.vol=[…].vol = clearance volume (mL), n = time (min), Aa = amount in acceptor compartment at time n (pmols), Cd0 = concentration in donor compartment at time zero (nM), Vd = volume of the donor compartment (mL), Ca = concentration in acceptor compartment at the previous time point (nM), Vs = sample volume of previous time point (mL), Ac = amount of compound associated with the cells (pmol), Nfin = final time point (min). […] The cleared volume was plotted against time and the slope of the regression line was divided by the surface area to obtain the Papp values. […] The method from Davis and colleagues was adopted with slight modifications. Separations were performed using an Apollo C18 (5 μm, 4.6x150mm) column attached to a matched guard column (5 μm, 4.6x5.5 mm). […] The injection volume was 40 μL and column oven was maintained at 35°C. The analytes were detected at 222 nm and the retention time was 5.6 minutes. Assay developed by Pussard and co-workers were used and slight modifications were done to adjust laboratory conditions. Separation was done using a Prevail C18 (3 μm, 4.6x150mm) column attached to a Direct-connect^TM universal column prefilter. The mobile phase consisted of 20 mM (w/v) KH2PO4 in deionized water at pH 3.0 and acetonitrile (82:18) v/v. […] The injection volume was 40 μL and column oven was maintained at 30°C. The analytes were detected at 343 nm with a retention time of 2.4 minutes. […] Separations were performed using an Apollo C18 (5 μm, 4.6x150mm) column attached to matched guard column (5 μm, 4.6x5.5mm). […] The injection volume was 40 μL and column oven was maintained at 30°C. The analytes were detected at 660 nm with a retention time of 3.8 minutes. A 40 μL sample was spiked with 5 μL 0.5 mM artemisinin internal standard. […] The pipettor was adjusted to the maximum volume (100 μL). […] Pre-treated samples were loaded into the tips by gently aspirating and discarding into the same vial. The process was repeated 10 times in order to increase binding efficiency of drugs to the OMIX 96 C4 matrix. […] The LC-MS method described by […] and co-workers were modified to suit the LC-MS-MS conditions. […] Wexford, Ireland) at 40°C. […] Quantitation was performed in multiple reactions monitoring, MRM mode, using DUIS (ESI^+ and APCI^+) ion sources. […] The optimized mass spectra were acquired with an interface voltage of 4.5 kV, a detector voltage of 1.0 kV, a heat block temperature of 500°C and a desolvation temperature of 160°C.
(Passage across Caco-2 layers is used to estimate intestinal permeability.)

In data set [2] the test system is Caco-2 cell monolayers. Described as above. In kind it is in vitro ADME, human. How it is done: as §1

As for `OC(c1cc(C(F)(F)F)nc2c(C(F)(F)F)cccc12)C1CCCCN1` (centres unmarked) [MQ, mefloquine], the Papp at 120 min was 6 to 10 ×10⁻⁶ cm/s in data set [1] (drug alone, read-out: Ap-Bas directional Papp, range over concentrations tested); 5 to 7 ×10⁻⁶ cm/s in data set [1] (drug alone, read-out: Bas-Ap directional Papp, range over concentrations tested); 1 to 25 ×10⁻⁶ cm/s in data set [1] (read-out: permeability across the gastrointestinal epithelium (class)); around 10 ×10⁻⁶ cm/s in data set [1] (summary in abstract, methylene blue depending on the direction of transport, read-out: permeability). In addition, in data set [1] (Caco-2, Conc (μM) + inhibitor (μM): 100, Bas-Ap divided by Ap-Bas), the efflux ratio at 120 min, 100 µM came to 1.2. The efflux ratio at 120 min, 10 µM in data set [1] (Caco-2, Conc (μM) + inhibitor (μM): 10, Bas-Ap divided by Ap-Bas) is 0.7. Further, the Papp at 120 min, 10 µM in data set [1] (Caco-2, Conc (μM) + inhibitor (μM): 10, first-named drug measured, read-out: Papp Ap-Bas) amounted to 9.9 ± 0.7 ×10⁻⁶ cm/s. The Papp B→A at 120 min, 10 µM in data set [1] (Caco-2, Conc (μM) + inhibitor (μM): 10, first-named drug measured, read-out: Papp Bas-Ap) was determined as 6.6 ± 0.4 ×10⁻⁶ cm/s. Also, the efflux ratio at 120 min, 20 µM in data set [1] (Caco-2, Conc (μM) + inhibitor (μM): 20, Bas-Ap divided by Ap-Bas) was 0.9. Further, the Papp at 120 min, 20 µM in data set [1] (Caco-2, Conc (μM) + inhibitor (μM): 20, first-named drug measured, read-out: Papp Ap-Bas) stood at 5.8 ± 0.7 ×10⁻⁶ cm/s. Also, in data set [1] (Caco-2, Conc (μM) + inhibitor (μM): 20, first-named drug measured, read-out: Papp Bas-Ap), the Papp B→A at 120 min, 20 µM was 5.3 ± 0.9 ×10⁻⁶ cm/s. The Papp at 120 min, 100 µM in data set [1] (Caco-2, Conc (μM) + inhibitor (μM): 100, first-named drug measured, read-out: Papp Ap-Bas) came to 8.9 ± 0.7 ×10⁻⁶ cm/s. Moreover, the Papp B→A at 120 min, 100 µM in data set [1] (Caco-2, Conc (μM) + inhibitor (μM): 100, first-named drug measured, read-out: Papp Bas-Ap) amounted to 11.4 ± 0.8 ×10⁻⁶ cm/s. Also, the Net flow direction result is “Diffusion (0.02) ^*” in data set [2] (Conc (μM) + inhibitor (μM): 10), “Diffusion (0.66)” in data set [2] (Conc (μM) + inhibitor (μM): 20) and “Diffusion (0.08)” in data set [2] (Conc (μM) + inhibitor (μM): 100). Also, the “drug absorption predicted from Papp” value in data set [2] (based on FDA biopharmaceutical classification system) is listed as 50–84%.

For orientation: efflux ratio means a quotient of directional permeabilities that is used to spot active efflux.
